Measured values taken from US20070099887A1, “Photodynamic therapy for the treatment of prostatic conditions” (priority 2003, published 2007).

Test system: prostate
Test: Photodynamic therapy of the canine prostate after intraprostatic injection of QLT0074 and transurethral 690 nm light
Assay type: in vivo, dogs
Method: Eight mature, intact, mixed-breed dogs were premedicated with butorphanol (0.4 mg per kilogram of body weight), acepromazine (0.1 mg/kg), and atropine (0.4 mg/kg), all given by intramuscular injection. Anesthesia was induced with intravenous thiopental sodium (8 mg per 0.4536 kilograms of body weight) and maintained with inhaled isoflurane and oxygen (dosage as required for anesthetic effect). QLT0074 for injection (A-EA6 in U.S. Pat. No. 5,929,105) was reconstituted with Water for Injection to give a stock concentration of 2.0 mg/ml and then diluted with 5% Dextrose in water to a concentration 0.2 mg/ml. Injections of the drug were then delivered to the prostate using a commercially available transurethral injection device (InjecTx™, San Jose, Calif., USA). Two injections of 0.5 ml were given to each left lobe of the prostate and 2 injections of 1.0 ml were given to each right lobe of the prostate. The activation-energy delivery device used comprised: • a cylindrical fibre optic with a 200 μm diameter core, a 25 mm long diffuser, and a power rating of 175 mW/cm (maximum power load, 437.5 mW), • a reflective-cap fibre-centering balloon catheter with a 20 mm treatment window supplied with a guidewire for positioning the device in the urethra, and • a 3 W 690 nm red-light diode laser (AOC, South Plainfield, N.J., USA). The treatment assembly was positioned in the urethra using ultrasonic guidance. Ultrasound was also used to position the needles for four […] intraprostatic injections (two per lobe separated by longitudinally by 1 cm). Each injection was at a depth of between 8 and 12 mm into the prostate. The activation energy was delivered 15 minutes after the last injection. A dose of either 25 J/cm^2, 50 J/cm^2, or 100 J/cm^2 was delivered. […] After seven days the dogs were euthanased and the prostates were harvested.

[1] = prostates harvested after seven days, QLT0074 0.2 mg/ml intraprostatic, injection depth 8-12 mm, 25, 50 or 100 J/cm^2

For `C=Cc1c(C)c2cc3nc(cc4[nH]c(cc5nc(cc1[nH]2)C(C)=C5CCC(=O)OCCO)c(CCC(=O)OCCO)c4C)[C@@]1(C)C3=CC=C(C(=O)OC)[C@H]1C(=O)OC` [QLT0074, Lemuteporfin], the “Bowel, bladder, and prostate sizes” value (dogs euthanased after seven days, QLT0074 0.2 mg/ml intraprostatic, 25, 50 or 100 J/cm^2) was “within normal ranges”, the “Clinical appearance of the dogs during observation” value (mature intact mixed-breed dogs, QLT0074 0.2 mg/ml, 2 x 0.5 ml left lobe and 2 x 1.0 ml right lobe, 690 nm light 25, 50 or 100 J/cm^2 15 minutes after last injection, observed for one week) was “clinically normal” and the “PDT-associated damage in the urethra” value [1] was “no significant PDT-associated damage”. For the same compound, the “PDT-associated tissue damage in the target tissue (prostates)” value [1] was “evidence of PDT-associated tissue damage in the target tissue”.
